Assays:
barnyard grass [1] = test: Test Example 3: herbicidal effect by foliage application, Wagner pot (Table 18, symbol H); format: in vivo, barnyard grass (Echinochloa crus-galli)
How it was run: (§1)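 Plants were sown in alluvial soil held under 0.1–0.5 cm standing water and grown 14 days in a greenhouse at 25–30 °C. An emulsifiable formulation, water-diluted to the set dose, was then sprayed onto the foliage, and effects were scored three weeks later using previously defined criteria.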

Chinese sprangletop = test: Test Example 3: herbicidal effect by foliage application, Wagner pot (Table 18, symbol D); format: in vivo, chinese sprangletop (Leptochloa chinensis)
How it was run: as §1

rice flat sedge = test: Test Example 3: herbicidal effect by foliage application, Wagner pot (Table 18, symbol E); format: in vivo, rice flat sedge (Cyperus iria)
How it was run: as §1

southern crabgrass [2] = test: Test Example 4: herbicidal effect by soil treatment (Table 19, symbol F); format: in vivo, southern crabgrass (Digitaria ciliaris); details: amount of applied herbicide 320 g/ha
How it was run: (§2)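 Emulsion of test compound, water-diluted to predetermined amount, sprayed on soil after sowing (seed depth ~1.5 cm, sterilized diluvial soil). Greenhouse, 25–30° C. Effect graded at three weeks post-spray.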

green foxtail [3] = test: Test Example 4: herbicidal effect by soil treatment (Table 19, symbol G); format: in vivo, green foxtail (Setaria viridis); details: amount of applied herbicide 320 g/ha
How it was run: as §2

barnyard grass [4] = test: Test Example 4: herbicidal effect by soil treatment (Table 19, symbol H); format: in vivo, barnyard grass (Echinochloa crus-galli); details: amount of applied herbicide 320 g/ha
How it was run: as §2

wild oat [5] = test: Test Example 4: herbicidal effect by soil treatment (Table 19, symbol I); format: in vivo, wild oat (Avena fatua); details: amount of applied herbicide 320 g/ha
How it was run: as §2

blackgrass [6] = test: Test Example 4: herbicidal effect by soil treatment (Table 19, symbol J); format: in vivo, blackgrass (Alopecurus myosuroides); details: amount of applied herbicide 320 g/ha
How it was run: as §2

Italian ryegrass [7] = test: Test Example 4: herbicidal effect by soil treatment (Table 19, symbol K); format: in vivo, Italian ryegrass (Lolium multiflorum); details: amount of applied herbicide 320 g/ha
How it was run: as §2

windgrass [8] = test: Test Example 4: herbicidal effect by soil treatment (Table 19, symbol L); format: in vivo, windgrass (Apera spica-venti); details: amount of applied herbicide 320 g/ha
How it was run: as §2

velvetleaf [9] = test: Test Example 4: herbicidal effect by soil treatment (Table 19, symbol M); format: in vivo, velvetleaf (Abutilon theophrasti); details: amount of applied herbicide 320 g/ha
How it was run: as §2

redroot pigweed [10] = test: Test Example 4: herbicidal effect by soil treatment (Table 19, symbol N); format: in vivo, redroot pigweed (Amaranthus retroflexus); details: amount of applied herbicide 320 g/ha
How it was run: as §2

lambsquarters [11] = test: Test Example 4: herbicidal effect by soil treatment (Table 19, symbol O); format: in vivo, lambsquarters (Chenopodium album); details: amount of applied herbicide 320 g/ha
How it was run: as §2

chickweed [12] = test: Test Example 4: herbicidal effect by soil treatment (Table 19, symbol P); format: in vivo, common chickweed (Stellaria media); details: amount of applied herbicide 320 g/ha
How it was run: as §2

persian speedwell [13] = test: Test Example 4: herbicidal effect by soil treatment (Table 19, symbol R); format: in vivo, Persian speedwell (Veronica persica); details: amount of applied herbicide 320 g/ha
How it was run: as §2

southern crabgrass [14] = test: Test Example 5: herbicidal effect by foliage application, plastic box (Table 20, symbol F); format: in vivo, southern crabgrass (Digitaria ciliaris); details: evaluated three weeks after application
How it was run: (§3)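 Post-emergence foliar test in sterilized diluvial soil. Compound applied as water-diluted emulsion at a predetermined rate to 14-day-old plants; evaluation at three weeks.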

green foxtail [15] = test: Test Example 5: herbicidal effect by foliage application, plastic box (Table 20, symbol G); format: in vivo, green foxtail (Setaria viridis); details: evaluated three weeks after application
How it was run: as §3

barnyard grass [16] = test: Test Example 5: herbicidal effect by foliage application, plastic box (Table 20, symbol H); format: in vivo, barnyard grass (Echinochloa crus-galli); details: evaluated three weeks after application
How it was run: as §3

wild oat [17] = test: Test Example 5: herbicidal effect by foliage application, plastic box (Table 20, symbol I); format: in vivo, wild oat (Avena fatua); details: evaluated three weeks after application
How it was run: as §3

blackgrass [18] = test: Test Example 5: herbicidal effect by foliage application, plastic box (Table 20, symbol J); format: in vivo, blackgrass (Alopecurus myosuroides); details: evaluated three weeks after application
How it was run: as §3

Italian ryegrass [19] = test: Test Example 5: herbicidal effect by foliage application, plastic box (Table 20, symbol K); format: in vivo, Italian ryegrass (Lolium multiflorum); details: evaluated three weeks after application
How it was run: as §3

windgrass [20] = test: Test Example 5: herbicidal effect by foliage application, plastic box (Table 20, symbol L); format: in vivo, windgrass (Apera spica-venti); details: evaluated three weeks after application
How it was run: as §3

velvetleaf [21] = test: Test Example 5: herbicidal effect by foliage application, plastic box (Table 20, symbol M); format: in vivo, velvetleaf (Abutilon theophrasti); details: evaluated three weeks after application
How it was run: as §3

redroot pigweed [22] = test: Test Example 5: herbicidal effect by foliage application, plastic box (Table 20, symbol N); format: in vivo, redroot pigweed (Amaranthus retroflexus); details: evaluated three weeks after application
How it was run: as §3

lambsquarters [23] = test: Test Example 5: herbicidal effect by foliage application, plastic box (Table 20, symbol O); format: in vivo, lambsquarters (Chenopodium album); details: evaluated three weeks after application
How it was run: as §3

chickweed [24] = test: Test Example 5: herbicidal effect by foliage application, plastic box (Table 20, symbol P); format: in vivo, common chickweed (Stellaria media); details: evaluated three weeks after application
How it was run: as §3

persian speedwell [25] = test: Test Example 5: herbicidal effect by foliage application, plastic box (Table 20, symbol R); format: in vivo, Persian speedwell (Veronica persica); details: evaluated three weeks after application
How it was run: as §3

[26] = amount of applied herbicide 320 g/ha, foliage application after 14-day growth
[27] = amount of applied herbicide 320 g/ha

CCSc1ccc(-c2sc3c(Cl)cccc3c2-c2c(O)c(C)nn(C)c2=O)cc1 [4-094]
herbicidal effect on barnyard grass (H) (barnyard grass [1]; 320 g/ha): 5 (Herbicidal rate of 90% or more (almost completely withered)) | herbicidal effect on Chinese sprangletop (D) (Chinese sprangletop; 320 g/ha): 4 (Herbicidal rate of 70% or more and less than 90%) | herbicidal effect on rice flat sedge (E) (rice flat sedge; 320 g/ha): 4 (Herbicidal rate of 70% or more and less than 90%) | Herbicidal effect by soil treatment, F: southern crabgrass (southern crabgrass [2]): 0 (Herbicidal rate of 5% or less (almost no effect)) | Herbicidal effect by soil treatment, G: green foxtail (green foxtail [3]): 0 (Herbicidal rate of 5% or less (almost no effect)) | Herbicidal effect by soil treatment, H: barnyard grass (barnyard grass [4]): 0 (Herbicidal rate of 5% or less (almost no effect)) | Herbicidal effect by soil treatment, I: wild oat (wild oat [5]): 0 (Herbicidal rate of 5% or less (almost no effect)) | Herbicidal effect by soil treatment, J: blackgrass (blackgrass [6]): 0 (Herbicidal rate of 5% or less (almost no effect)) | Herbicidal effect by soil treatment, K: Italian ryegrass (Italian ryegrass [7]): 2 (Herbicidal rate of 20% or more and less than 40%) | Herbicidal effect by soil treatment, L: windgrass (windgrass [8]): 0 (Herbicidal rate of 5% or less (almost no effect)) | Herbicidal effect by soil treatment, M: velvetleaf (velvetleaf [9]): 0 (Herbicidal rate of 5% or less (almost no effect)) | Herbicidal effect by soil treatment, N: redroot pigweed (redroot pigweed [10]): 5 (Herbicidal rate of 90% or more (almost completely withered)) | Herbicidal effect by soil treatment, O: lambsquarters (lambsquarters [11]): 3 (Herbicidal rate of 40% or more and less than 70%) | Herbicidal effect by soil treatment, P: chickweed (chickweed [12]): 0 (Herbicidal rate of 5% or less (almost no effect)) | Herbicidal effect by soil treatment, R: persian speedwell (persian speedwell [13]): 3 (Herbicidal rate of 40% or more and less than 70%) | Herbicidal effect by foliage application, F: southern crabgrass (southern crabgrass [14]; [26]): 0 (Herbicidal rate of 5% or less (almost no effect)) | Herbicidal effect by foliage application, G: green foxtail (green foxtail [15]; [26]): 4 (Herbicidal rate of 70% or more and less than 90%) | Herbicidal effect by foliage application, H: barnyard grass (barnyard grass [16]; [26]): 3 (Herbicidal rate of 40% or more and less than 70%) | Herbicidal effect by foliage application, I: wild oat (wild oat [17]; [26]): 4 (Herbicidal rate of 70% or more and less than 90%) | Herbicidal effect by foliage application, J: blackgrass (blackgrass [18]; [26]): 5 (Herbicidal rate of 90% or more (almost completely withered)) | Herbicidal effect by foliage application, K: Italian ryegrass (Italian ryegrass [19]; [26]): 4 (Herbicidal rate of 70% or more and less than 90%) | Herbicidal effect by foliage application, L: windgrass (windgrass [20]; [26]): 5 (Herbicidal rate of 90% or more (almost completely withered)) | Herbicidal effect by foliage application, M: velvetleaf (velvetleaf [21]; [26]): 4 (Herbicidal rate of 70% or more and less than 90%) | Herbicidal effect by foliage application, N: redroot pigweed (redroot pigweed [22]; [26]): 5 (Herbicidal rate of 90% or more (almost completely withered)) | Herbicidal effect by foliage application, O: lambsquarters (lambsquarters [23]; [26]): 5 (Herbicidal rate of 90% or more (almost completely withered)) | Herbicidal effect by foliage application, P: chickweed (chickweed [24]; [26]): 5 (Herbicidal rate of 90% or more (almost completely withered)) | Herbicidal effect by foliage application, R: persian speedwell (persian speedwell [25]; [26]): 5 (Herbicidal rate of 90% or more (almost completely withered))

COc1ccccc1-c1sc2ccc(NC(=O)OC(C)(C)C)cc2c1-c1c(O)c(C)nn(C)c1=O [2-181]
herbicidal effect on H: barnyard grass (barnyard grass [1]; [27]): 2 (Herbicidal rate of 20% or more and less than 40%) | herbicidal effect on D: Chinese sprangletop (Chinese sprangletop; [27]): 3 (Herbicidal rate of 40% or more and less than 70%) | herbicidal effect on E: rice flat sedge (rice flat sedge; [27]): 0 (Herbicidal rate of 5% or less (almost no effect)) | F: southern crabgrass, herbicidal effect rating (southern crabgrass [2]): 0 (Herbicidal rate of 5% or less (almost no effect)) | G: green foxtail, herbicidal effect rating (green foxtail [3]): 0 (Herbicidal rate of 5% or less (almost no effect)) | H: barnyard grass, herbicidal effect rating (barnyard grass [4]): 0 (Herbicidal rate of 5% or less (almost no effect)) | I: wild oat, herbicidal effect rating (wild oat [5]): 0 (Herbicidal rate of 5% or less (almost no effect)) | J: blackgrass, herbicidal effect rating (blackgrass [6]): 0 (Herbicidal rate of 5% or less (almost no effect)) | K: Italian ryegrass, herbicidal effect rating (Italian ryegrass [7]): 0 (Herbicidal rate of 5% or less (almost no effect)) | L: windgrass, herbicidal effect rating (windgrass [8]): 0 (Herbicidal rate of 5% or less (almost no effect)) | M: velvetleaf, herbicidal effect rating (velvetleaf [9]): 0 (Herbicidal rate of 5% or less (almost no effect)) | N: redroot pigweed, herbicidal effect rating (redroot pigweed [10]): 3 (Herbicidal rate of 40% or more and less than 70%) | O: lambsquarters, herbicidal effect rating (lambsquarters [11]): 4 (Herbicidal rate of 70% or more and less than 90%) | P: chickweed, herbicidal effect rating (chickweed [12]): 4 (Herbicidal rate of 70% or more and less than 90%) | R: persian speedwell, herbicidal effect rating (persian speedwell [13]): 4 (Herbicidal rate of 70% or more and less than 90%) | herbicidal effect on F: southern crabgrass (criteria 0-5) (southern crabgrass [14]; foliage application, 320 g/ha): 0 (Herbicidal rate of 5% or less (almost no effect)) | herbicidal effect on G: green foxtail (criteria 0-5) (green foxtail [15]; foliage application, 320 g/ha): 1 (Herbicidal rate of 5% or more and less than 20%) | herbicidal effect on H: barnyard grass (criteria 0-5) (barnyard grass [16]; foliage application, 320 g/ha): 0 (Herbicidal rate of 5% or less (almost no effect)) | herbicidal effect on I: wild oat (criteria 0-5) (wild oat [17]; foliage application, 320 g/ha): 0 (Herbicidal rate of 5% or less (almost no effect)) | herbicidal effect on J: blackgrass (criteria 0-5) (blackgrass [18]; foliage application, 320 g/ha): 0 (Herbicidal rate of 5% or less (almost no effect)) | herbicidal effect on K: Italian ryegrass (criteria 0-5) (Italian ryegrass [19]; foliage application, 320 g/ha): 0 (Herbicidal rate of 5% or less (almost no effect)) | herbicidal effect on L: windgrass (criteria 0-5) (windgrass [20]; foliage application, 320 g/ha): 0 (Herbicidal rate of 5% or less (almost no effect)) | herbicidal effect on M: velvetleaf (criteria 0-5) (velvetleaf [21]; foliage application, 320 g/ha): 3 (Herbicidal rate of 40% or more and less than 70%) | herbicidal effect on N: redroot pigweed (criteria 0-5) (redroot pigweed [22]; foliage application, 320 g/ha): 5 (Herbicidal rate of 90% or more (almost completely withered)) | herbicidal effect on O: lambsquarters (criteria 0-5) (lambsquarters [23]; foliage application, 320 g/ha): 4 (Herbicidal rate of 70% or more and less than 90%) | herbicidal effect on P: chickweed (criteria 0-5) (chickweed [24]; foliage application, 320 g/ha): 5 (Herbicidal rate of 90% or more (almost completely withered)) | herbicidal effect on R: persian speedwell (criteria 0-5) (persian speedwell [25]; foliage application, 320 g/ha): 5 (Herbicidal rate of 90% or more (almost completely withered))

Reference: US20230085307A1, “PYRIDAZINONE COMPOUND AND HERBICIDE” (NISSAN CHEMICAL CORPORATION, priority 2019, published 2023)
